From patent US10294262B2, “7-deazapurine nucleosides for therapeutic uses” (Institute of Organic Chemistry and Biochemistry ASCR, V.V.I., priority 2009, dated 2019)
Where two headings read alike, the source gives them in different places.

Tests used:
[1] = tested on: A549; experiment: Test A: Cytostatic cell culture assay (CC50), SRB, solid tumor cell lines; settings: Homo sapiens, A549, 120 h, read-out: CC50 Lung A549
Excerpt: Test A: Cytostatic Cell Culture Assay (CC50) for Solid Tumor Cell Lines
This assay is based on quantification of cell mass determination by a colorimetric detection of the cell associated proteins. The assay relies on the ability of sulforhodamine B (SRB) to bind to protein components of cells that have been fixed to tissue-culture plates by trichloroacetic acid (TCA). SRB is a bright-pink aminoxanthene dye with two sulfonic groups that bind to basic amino-acid residues under mild acidic conditions, and dissociate under basic conditions. As the binding of SRB is stochiometric, the amount of dye extracted from stained cells is directly proportional to the cell mass.
Cell lines: All cell lines are obtained from ATCC (Manassas, Va.). Cultivation media containing Glutamax, and trypsin are purchased from Invitrogen (Carlsbad, Calif.). Doxorubicin, Tubercidin, Clofarabine, TCA and SRB are from Sigma-Aldrich (St. Louis, Mo.). Gemcitabine is obtained from Moravek Biochemicals (Brea, Calif.)
• 1. Trypsinize the sub-confluent cells, count them, and adjust the cell concentrations according to the cell counts listed in Table 1. • 2. Distribute the cells into the 96-well plates in 150 μL of media. Incubate the plates overnight in humidified CO2 incubator at 37° C. • 3. Fix one plate of each cell line with TCA. Discard the cultivation media from the plates by flicking them gently and add 100 μL cold 10% (vol/vol) TCA to each well. Incubate the plates at 4 degree refrigerator for 1 hour. Discard TCA from the plates by flicking them gently. Rinse plates four times in a washing basin containing tap water. Store the plates at room temperature. These plates represent cell counts on day zero. • 4. Prepare a set of medium solutions containing various concentrations of tested compounds by making 5-fold serial dilutions in 96-well plate. Add 50 μL of the diluted compounds per well. Include controls with untreated cells and cells treated with doxorubicin, tubercidin, clofarabine and/or gemcitabine. • 5. Incubate the plates for 5 days at 37° C. • 6. Fix the plates with TCA. Discard the cultivation media from the plates by flicking them gently and add 100 μL cold 10% (vol/vol) TCA to each well. Incubate the plates at 4 degree refrigerator for 1 hour. Discard TCA from the plates by flicking them gently. Rinse plates four times in a washing basin containing tap water. • 7. Remove excess water by tapping the plates face down, gently on a paper towel. Allow the plates to air-dry at room temperature. • 8. Add 100 μL of 0.057% SRB solution in 1% (vol/vol) acetic acid to each well of the plates fixed with TCA on day zero and five. Leave at room temperature for 30 minutes. • 9. Flick the plates gently to discard SRB. Rinse the plates four times with 1% (vol/vol) Acetic Acid. • 10. Store the plates at 37° incubator to facilitate faster drying. • 11. Once the plates are completely dry, add 200 μL of 10 mM Tris base solution (pH 10.5) to each well. Leave at room temperature for 30 minutes for SRB to solubilize. • 12. Measure the OD at 500 nm in a microplate reader. • 13. Calculate the percentage of cell-growth inhibition using the next formula: % of control cell growth=100×(ODsample−mean ODday0)/(ODneg control−mean ODday0). For CC50 determination, plot a dose-response curves between the compound concentration and percent of growth inhibition. CC50 values can be derived by fitting dose-response curves using sigmoidal dose response equation.

[2] = tested on: BT549; experiment: as above; type: cell-based; settings: Homo sapiens, BT-549, 120 h, read-out: CC50 Breast BT549
Experimental: (§1) Gemcitabine is obtained from Moravek Biochemicals (Brea, Calif.)
(§2) • 1. […] Fix one plate of each cell line with TCA. […] Discard TCA from the plates by flicking them gently. […] Store the plates at room temperature. These plates represent cell counts on day zero. • 4. […] Add 50 μL of the diluted compounds per well. […] Fix the plates with TCA. […] Discard TCA from the plates by flicking them gently. […] Leave at room temperature for 30 minutes. • 9. Flick the plates gently to discard SRB.

[3] = tested on: Du145; experiment: as above; type: cell-based; settings: Homo sapiens, DU-145, 120 h, read-out: CC50 Prostate Du145
Experimental: as §1, §2

[4] = tested on: HCT116; experiment: as above; type: cell-based; settings: Homo sapiens, HCT-116, 120 h, read-out: CC50 Colon HCT116
Experimental: as §1, §2

[5] = tested on: HS578; experiment: as above; type: cell-based; settings: Homo sapiens, Hs578, 120 h, read-out: CC50 Breast HS578
Experimental: as §1, §2

[6] = tested on: NCI H23; experiment: as above; type: cell-based; settings: Homo sapiens, NCI-H23, 120 h, read-out: CC50 Lung NCI H23
Experimental: as §1, §2

[7] = tested on: PC3; experiment: as above; type: cell-based; settings: Homo sapiens, PC-3, 120 h, read-out: CC50 Prostate PC3
Experimental: as §1, §2

[8] = tested on: human tumor cell lines; experiment: Tests A and B, all tumor cell lines together; type: cell-based; settings: read-out: CC50 Geometric mean all
Experimental: as §2
Plates were incubated for 5 days with tested compounds.

[9] = tested on: MT-4 T-lymphoid cell line; experiment: Test B: Cytostatic cell culture assay (CC50), CellTiter Glo, lymphoid tumor cell lines; settings: Homo sapiens, MT4, 120 h, read-out: CC50 T-lymphoid MT-4
Experimental: Test B: Cytostatic Cell Culture Assay (CC50) for Lymphoid Tumor Cell Lines
This test is typically performed with cell lines that are derived from hematological tumors and grow in suspension. An example of such cell line is human MT-4 T-lymphoid cell line used for the determination of cytostatic activity of tested compounds. […] Cells were passaged in suspension twice a week and maintained at densities below 500,000 cells/mL. For CC50 determination, cells were seeded into 384-well plates at 2,000 cells/well in 20 μL of culture medium. Compounds were serially diluted in culture medium and added in triplicate to a final assay volume of 40 μL/well. Plates were incubated for 5 days with tested compounds. At the end of incubation, cell viability was determined by addition of 40 μL of CellTiter Glo reagent followed by a luminescence read-out.
Data analysis and CC50 value calculations were done using GraphPad Prism software (GraphPad Software, San Diego, Calif.) by applying nonlinear regression.

[10] = BT549 breast tumor cells, 5 days, SRB

Row | Compound | CC50 [1] [nM] | CC50 [2, 10] [nM] | CC50 [3] [nM] | CC50 [4] [nM] | CC50 [5] [nM] | CC50 [6] [nM] | CC50 [7] [nM] | CC50 [8] [nM] | CC50 [9] [nM] | melting point [°C] | CC50 [2] [nM]
1 | Nc1ncnc2c1c(-c1ccsc1)cn2[C@@H]1O[C@H](CO)[C@@H](O)[C@H]1O [Compound 2i, 4-Amino-7-(β-D-ribofuranosyl)-5-(thiophen-3-yl)-7H-pyrrolo[2,3-d]pyrimidine] | 16 | 28 | 97 | 7 | 50 | 73 | 1320 | 60.7 | 124 |  | 
2 | COc1ccc(-c2cn([C@@H]3O[C@H](CO)[C@@H](O)[C@@]3(C)O)c3ncnc(N)c23)cc1 [Compound 7b, 4-Amino-5-(4-methoxyphenyl)-7-(2-C-methyl-β-D-ribofuranosyl)-7H-pyrrolo[2,3-d]pyrimidine] |  |  |  |  |  |  |  |  |  | 127 | 
3 | Nc1ncnc2c1c(-c1cc3ccccc3o1)cn2[C@@H]1O[C@H](CO)[C@@H](O)[C@H]1O [Compound 2j, 4-Amino-5-(benzofuran-2-yl)-7-(β-D-ribofuranosyl)-7H-pyrrolo[2,3-d]pyrimidine] | 7020 |  |  | 3740 | 6730 | 5400 | 6290 | 5540 | 4800 |  | > 10000
4 | CSc1ccc(-c2cn([C@@H]3O[C@H](CO)[C@@H](O)[C@H]3O)c3ncnc(N)c23)cc1 [Compound 2c, 4-Amino-5-[4-(methylthio)phenyl]-7-(β-D-ribofuranosyl)-7H-pyrrolo[2,3-d]pyrimidine] |  |  | 1870 | 1290 | 1970 | 390 |  | 1520 | 4400 |  | 
5 | Nc1ncnc2c1c(-c1cc[nH]n1)cn2[C@@H]1O[C@H](CO)[C@@H](O)[C@H]1O [Compound 2n, 4-Amino-5-(1H-pyrazol-3-yl)-7-(β-D-ribofuranosyl)-7H-pyrrolo[2,3-d]pyrimidine] |  |  |  | 18 | 8 | 35 | 15 | 17.1 | 18 | 135 | 
6 | Nc1ncnc2c1c(-c1cn[nH]c1)cn2[C@@H]1O[C@H](CO)[C@@H](O)[C@H]1O [Compound 2m, 4-Amino-5-(1H-pyrazol-4-yl)-7-(β-D-ribofuranosyl)-7H-pyrrolo[2,3-d]pyrimidine] | 192 | 50 |  | 970 | 12 | 144 | 14 | 81.9 | 110 |  | 
7 | Nc1ncnc2c1c(-c1ccoc1)cn2[C@@H]1O[C@H](CO)[C@@H](O)[C@H]1O [Compound 2h, 4-Amino-5-(furan-3-yl)-7-(β-D-ribofuranosyl)-7H-pyrrolo[2,3-d]pyrimidine] | 34 | 28 | 330 | 15 | 21 | 198 | 418 | 78.1 | 170 |  | 
8 | Nc1ncnc2c1c(-c1c[nH]cn1)cn2[C@@H]1O[C@H](CO)[C@@H](O)[C@H]1O [Compound 2r, 4-Amino-5-(1H-imidazol-4-yl)-7-(β-D-ribofuranosyl)-7H-pyrrolo[2,3-d]pyrimidine] |  |  |  | 3 | 2 | 2 | 2 | 3.8 | 28 |  | 
9 | Nc1ncnc2c1c(-c1ncc[nH]1)cn2[C@@H]1O[C@H](CO)[C@@H](O)[C@H]1O [Compound 2s, 4-Amino-5-(1H-imidazol-2-yl)-7-(β-D-ribofuranosyl)-7H-pyrrolo[2,3-d]pyrimidine] |  |  |  | 2 | 1 | 6 | 1 | 3.8 | 49 | 153 to 156 | 
10 | COc1cccc2c1C(=O)c1c(O)c3c(c(O)c1C2=O)C[C@@](O)(C(=O)CO)C[C@@H]3O[C@H]1C[C@H](N)[C@H](O)[C@H](C)O1 [Doxorubicine, reference compound] | 16 | 10 |  | 11 | 6 | 5 | 21 | 10.1 |  |  | 
11 | Nc1ncnc2c1c(-c1c[nH]nn1)cn2[C@@H]1O[C@H](CO)[C@@H](O)[C@H]1O [Compound 2p, 4-Amino-7-(β-D-ribofuranosyl)-5-(1H-1,2,3-triazol-4-yl)-7H-pyrrolo[2,3-d]pyrimidine] |  |  |  | 4 | 3 | 4 | 5 | 5.2 | 18 | 286 to 288 | 
12 | Nc1ncnc2c1c(-c1cc[nH]c1)cn2[C@@H]1O[C@H](CO)[C@@H](O)[C@H]1O [Compound 2l, 4-Amino-5-(1H-pyrrol-3-yl)-7-(β-D-ribofuranosyl)-7H-pyrrolo[2,3-d]pyrimidine] | 5.3 | 8 |  | 5.9 | 4.4 | 33 | 29 | 11.4 | 24 |  | 
13 | Nc1ncnc2c1c(-c1ccc3ccccc3c1)cn2[C@@H]1O[C@H](CO)C(O)C1O (stereo partly drawn) [Compound 2e, 4-Amino-5-(naphtalen-2-yl)-7-(β-D-ribofuranosyl)-7H-pyrrolo[2,3-d]pyrimidine] |  |  | 1050 | 5670 | 2160 | 5350 |  | 2880 |  |  | 
14 | C[C@@]1(O)[C@H](O)[C@@H](CO)O[C@H]1n1cc(-c2ccccc2)c2c(N)ncnc21 [Compound 7a, 4-Amino-7-(2-C-methyl-β-D-ribofuranosyl)-5-phenyl-7H-pyrrolo[2,3-d]pyrimidine] |  |  |  |  |  |  |  |  |  | 129 | 
15 | Nc1ncnc2c1c(-c1cccc3ccccc13)cn2[C@@H]1O[C@H](CO)C(O)C1O (stereo partly drawn) [Compound 2d, 4-Amino-5-(naphtalen-1-yl)-7-(β-D-ribofuranosyl)-7H-pyrrolo[2,3-d]pyrimidine] |  |  | > 10000 | > 10000 | > 10000 | > 10000 |  | > 10000 |  |  | 
16 | Nc1ncnc2c1c(-c1nccs1)cn2[C@@H]1O[C@H](CO)[C@@H](O)[C@H]1O [Compound 2q, 4-Amino-7-(β-D-ribofuranosyl)-5-(thiazol-2-yl)-7H-pyrrolo[2,3-d]pyrimidine] |  |  |  | 93 | 15 | 5 | 42 | 25.6 | 42 |  | 
17 | C#Cc1cn([C@@H]2O[C@H](CO)[C@@H](O)[C@H]2O)c2ncnc(N)c12 [Compound 2o, 4-Amino-5-ethynyl-7-(β-D-ribofuranosyl)-7H-pyrrolo[2,3-d]pyrimidine] |  |  |  | 2 | 1 | 1 | 11 | 1.9 | 1 |  | 
